From patent publication US20230181527A1, “APICAL SODIUM-DEPENDENT TRANSPORTER INHIBITOR COMPOSITIONS” (Mirum Pharmaceuticals, Inc., priority 2021, published 2023)

Assays:
MDR2−/− mice = experiment: MDR2−/− mouse model of sclerosing cholangitis; assay type: in vivo
Protocol: Methods: 30-day-old female MDR2−/− mice (FVB background) were treated daily for 14 days by orogastric gavage with either vehicle control (Kolliphor and CMC), 100 mg/kg/day bezafibrate (pan-PPAR agonist), 100 mg/kg/day fenofibrate (PPARα agonist), 10 mg/kg seladelpar (PPARδ agonist), 0.008% SC-435 (non-absorbable IBAT inhibitor) admixed to chow, or a combination of SC-435 and PPAR agonists.

physchem = details: water
Excerpt: Since pediatric patients are the target patient population for the proposed cholestatic disease, an oral solution formulation was selected due to its flexibility for dose adjustment based on patient's body weight and the preference for this type of formulation in young children.

[1] = Solubility of MRX drug substance in water and commercially available vehicles, visual observation; assay type: physicochemical; details: Water; 0.02 mg/mL
Protocol: For early pediatric clinical studies, the desired maralixibat solution concentration was in the range of 0.02 to 20 mg/mL (concentration based on maralixibat chloride). Initial formulation studies were conducted to determine the solubility and stability of MRX drug substance in three liquid oral dosing vehicles: water, Pedialyte® (an oral rehydration preparation), and Ora-Sweet® SF (a sugar-free, alcohol-free syrup vehicle for oral preparations). Using these three vehicles, samples were produced with the MRX drug substance at three different concentrations (0.02 mg/mL, 2.0 mg/mL, and 4.0 mg/mL concentrations based on maralixibat chloride). A vortex mixer was used to disperse the drug within the liquid vehicle; drug dissolution status was then visually checked and recorded as in Table 4.

[2] = Maralixibat open label study in PFIC (LUM001-501): pruritus and concomitant antipruritic medication; assay type: in vivo, human
Excerpt: In an open label study to evaluate efficacy and long term safety of maralixibat (LUM001) in the treatment of Cholestatic Liver Disease in patients with Progressive Familial Intrahepatic Cholestasis (PFIC) (Study LUM001-501), participants were not allowed to make any changes to their antipruritic therapy during the 13-week treatment period. No new medications used to treat pruritus were to be added during the 13-week treatment period. Therefore, participants had to be on stable antipruritic medication doses (except for weight-based dose adjustments) during the 13-week treatment period. In the long-term exposure period, changes in antipruritic medications were allowed.

[3] = Maralixibat clinical studies in ALGS (LUM001-304, LUM001-303, LUM001-305): pruritus and concomitant antipruritic medication; assay type: in vivo, human
Excerpt: In Study LUM001-304, participants were not allowed to make any changes to their antipruritic therapy up to Week 22. In Studies LUM001-301 and LUM001-302, no changes to the antipruritic comedications were allowed throughout the period of the primary analysis up to Week 13. Therefore, across all studies, participants had to be on stable antipruritic medication doses (except for weight-based dose adjustments) throughout the randomized controlled periods. […] Participants in LUM001-302 received either 140 μg/kg/day or 280 μg/kg/day of maralixibat (as maralixibat chloride). The long-term LUM001-303 dosing was 280 μg/kg QD and 280 μg/kg BID. The long term LUM001-305 dosing was at 280 μg/kg/day. After these stable-dosing periods in the long-term extension studies, changes in antipruritic medications were allowed. Weight-based dose adjustments in antipruritic medications were anticipated over the course of a 5-year study.

[4] = female MDR2−/− mice, daily for 14 days
[5] = Study LUM001-303, long-term extension, of the 19 participants
[6] = Study LUM001-305, long term extension, of the 34 participants

For CCCCC1(CCCC)CS(=O)(=O)c2ccc(N(C)C)cc2[C@@H](c2ccc(OCc3ccc(C[N+]45CCN(CC4)CC5)cc3)cc2)[C@H]1O.[Cl-] [SC-435], the “serum ALP” value (MDR2−/− mice; female MDR2−/− mice (FVB background), daily for 14 days) was “increased”, the “liver to body weight ratio” value (MDR2−/− mice; [4]) was “attenuated” and the “retention of BA in the liver” value (MDR2−/− mice; [4]) was “significantly reduced”. The “serum BA concentrations” value (MDR2−/− mice; [4]) was “decreased”, the “serum TB concentrations” value (MDR2−/− mice; [4]) was “reduced” and the “potency in reducing serum total BA and TB levels” value (MDR2−/− mice; mouse model of SC) was “more potent than PPAR agonists”.
With CCCCC1(CCCC)CS(=O)(=O)c2ccc(N(C)C)cc2[C@@H](c2ccc(OCc3ccc(C[N+]45CCN(CC4)CC5)cc3)cc2)[C@H]1O [maralixibat chloride] the solubility (physchem) was greater than 100 mg/mL, the “Solubility Observations” value [1] was “Dissolved Instantly” and the “pruritus control after discontinuing one or more antipruritic medications” value ([2]; 5 exemplary PFIC patients, FIGS. 3A-3E) was “still maintain control of pruritus”. For the same molecule, the “participants with a decrease in dose or discontinuation of antipruritic medications” value ([2]; Study LUM001-501, N=33) was 13 participants, the “participants with an increase in dose of antipruritic medication” value ([2]; Study LUM001-501, N=33) was 5 participants and the “pruritus, ItchRO(Obs) scores” value ([2]; Study LUM001-501, sustained period of follow-up) was “general improvements in pruritus”. The pruritus scores ([3]; ALGS studies, long-term follow-up) was “consistently improved”, the “participants who experienced a decrease in concomitant antipruritic medication” value (shortened to “participants who experienced a decrease”) [3, 5] was 2 participants and the “participants who experienced an increase in concomitant antipruritic medication” value [3, 5] was “Five”. For the same molecule, the “participants with no or minimal change in concomitant antipruritic medication” value [3, 5] was 12 participants, the “pruritus reduction and proportion of participants reducing concomitant antipruritic medication” value ([3]; Study LUM001-304, 400 μg/kg dose, compared with supporting ALGS studies at lower doses) was “greatest pruritus reduction and the largest proportion of participants reducing concomitant antipruritic medication” and the “participants who experienced a decrease” value ([3]; Study LUM001-304, after Week 22, long-term extension, of the 29 participants) was 10 participants. For the same molecule, the “participants who experienced a decrease” value [3, 6] was 10 participants, the “participants who experienced an increase in concomitant antipruritic medication” value [3, 6] was “Seven” and the “participants with no or minimal change in concomitant antipruritic medication” value [3, 6] was 17 participants.
